Legend:
Assay type in all cases: in vivo
[1] = tested on: Myzus persicae (Green Peach Aphid); test: Activity against Myzus persicae, roots of infested pea seedlings in test solution; conditions: 144 h, test rate of 24 ppm, 6 days
Experimental: Example B6: Activity Against Myzus persicae (Green Peach Aphid)
Roots of pea seedlings infested with an aphid population of mixed ages were placed directly in the aqueous test solutions prepared from 10′000 DMSO stock solutions. The samples were assessed for mortality 6 days after placing seedlings in test solutions.

[2] = tested on: Aedes aegypti (Yellow Fever Mosquito); test: whole plant or invertebrate; conditions: 48 h, test rate of 5 ppm, L2 larvae in 96-well plates, incubation period of 2 days, read-out: effect in at least one of the two categories (mortality or growth inhibition)
Experimental: Example B14: Activity Against Aedes aegypti (Yellow Fever Mosquito)
10 to 15 Aedes larvae (L2) together with a nutrition mixture were placed in 96-well microtiter plates. Test compounds were pipetted into the wells. After an incubation period of 2 days insects were assessed for mortality and growth inhibition.

[3] = tested on: Myzus persicae (Green Peach Aphid); test: Activity against Myzus persicae, sprayed sunflower leaf discs; conditions: foliar, 144 h, application rate of 200 ppm, aphid population of mixed ages on sunflower leaf discs, 6 days after infestation
Experimental: Example B5: Activity Against Myzus persicae (Green Peach Aphid)
(§1) Sunflower leaf discs were placed on agar in a 24-well microtiter plate and sprayed with aqueous test solutions prepared from 10′000 ppm DMSO stock solutions. After drying, the leaf discs were infested with an aphid population of mixed ages. The samples were assessed for mortality 6 days after infestation.

[4] = tested on: Spodoptera littoralis (Egyptian Cotton Leaf Worm); test: Activity against Spodoptera littoralis, sprayed cotton leaf discs; conditions: foliar, 72 h, application rate of 200 ppm, L1 larvae on cotton leaf discs, 3 days after infestation, read-out: control (at least one of mortality, anti-feedant effect, growth inhibition)
Experimental: Example B9: Activity Against Spodoptera littoralis (Egyptian Cotton Leaf Worm)
Cotton leaf discs were placed on agar in 24-well microtiter plates and sprayed with aqueous test solutions prepared from 10′000 ppm DMSO stock solutions. After drying the leaf discs were infested with five L1 larvae. The samples were assessed for mortality, anti-feedant effect, and growth inhibition in comparison to untreated samples 3 days after infestation. Control of Spodoptera littoralis by a test sample is when at least one of mortality, anti-feedant effect, and growth inhibition is higher than the untreated sample.

[5] = tested on: Diabrotica balteata (Corn Root Worm); test: Activity against Diabrotica balteata, sprayed maize sprouts; conditions: 96 h, application rate of 200 ppm, larvae on maize sprouts, 4 days after infestation
Experimental: Example B2: Activity Against Diabrotica balteata (Corn Root Worm)
Maize sprouts, placed on an agar layer in 24-well microtiter plates were treated with aqueous test solutions prepared from 10′000 ppm DMSO stock solutions by spraying. After drying, the plates were infested with […] (6 to 10 per well). The samples were assessed for mortality 4 days after infestation.

[6] = tested on: Euschistus heros (Neotropical Brown Stink Bug); test: Activity against Euschistus heros, sprayed soybean leaf; conditions: 120 h, application rate of 200 ppm, N-2 nymphs on soybean leaf, 5 days after infestation
Experimental: Example B3: Activity Against Euschistus heros (Neotropical Brown Stink Bug)
Soybean leaf on agar in 24-well microtiter plates were sprayed with aqueous test solutions prepared from 10′000 ppm DMSO stock solutions. After drying the leaf were infested with N-2 nymphs. The samples were assessed for mortality 5 days after infestation.

[7] = tested on: Thrips tabaci (Onion Thrips); test: Activity against Thrips tabaci, feeding/contact activity; conditions: foliar, 144 h, application rate of 200 ppm, thrips population of mixed ages on sunflower leaf discs, 6 days after infestation
Experimental: Example B13: Activity Against Thrips tabaci (Onion Thrips) Feeding/Contact Activity
as §1, with “in” for “in a”, “plates” for “plate”, “drying” for “drying,”, “a thrips” for “an aphid”

[8] = tested on: Plutella xylostella (Diamond Back Moth); test: Activity against Plutella xylostella, treated artificial diet; conditions: 120 h, application rate of 200 ppm, L2 larvae on artificial diet, 5 days after infestation, read-out: effect in at least one of the two categories (mortality or growth inhibition)
Experimental: Example B8: Activity Against Plutella xylostella (Diamond Back Moth)
24-well microtiter plates with artificial diet were treated with aqueous test solutions prepared from 10′000 ppm DMSO stock solutions by pipetting. After drying, the plates were infested with L2 larvae (10 to 15 per well). The samples were assessed for mortality and growth inhibition in comparison to untreated samples 5 days after infestation.

[9] = tested on: Frankliniella occidentalis (Western Flower Thrips); test: Activity against Frankliniella occidentalis, sprayed sunflower leaf discs; conditions: foliar, 168 h, application rate of 200 ppm, population of mixed ages on sunflower leaf discs, 7 days after infestation
Experimental: Example B4: Activity Against Frankliniella occidentalis (Western Flower Thrips)
as §1, with “in” for “in a”, “plates” for “plate”, “[…]” for “10′000 ppm”, “drying” for “drying,”, “a Frankliniella” for “an aphid”, “7” for “6”

[10] = tested on: Myzus persicae (Green Peach Aphid); test: Activity against Myzus persicae, sucrose solution under Parafilm; conditions: 120 h, test rate of 12 ppm, mixed with sucrose solution, 5 days after infestation
Description: Example B7: Activity Against Myzus persicae (Green Peach Aphid)
Test compounds from 10′000 ppm DMSO stock solutions were applied by pipette into 24-well microtiter plates and mixed with sucrose solution. The plates were closed with a stretched Parafilm. A plastic stencil with 24 holes was placed onto the plate and infested pea seedlings were placed directly on the Parafilm. The infested plate was closed with a gel blotting paper and another plastic stencil and then turned upside down. The samples were assessed for mortality 5 days after infestation. […] A30 and A32.

[11] = tested on: Bemisia tabaci (Cotton White Fly); test: Activity against Bemisia tabaci, sprayed cotton leaf discs; conditions: foliar, 144 h, application rate of 200 ppm, adult white flies on cotton leaf discs, 6 days after incubation
Experimental: Example B1: Activity Against Bemisia tabaci (Cotton White Fly)
Cotton leaf discs were placed on agar in 24-well microtiter plates and sprayed with aqueous test solutions prepared from 10′000 ppm DMSO stock solutions. After drying the leaf discs were infested with adult white flies. The samples were checked for mortality 6 days after incubation. […] A35, A36 and A47. A1. A2, A3, A8, A10, A14 and A12.

[12] = tested on: Spodoptera littoralis (Egyptian Cotton Leaf Worm); test: Activity against Spodoptera littoralis, systemic activity; conditions: 144 h, test rate of 12.5 ppm, in agar, lettuce root uptake, 6 days after infestation
Description: Example B11: Activity Against Spodoptera littoralis (Egyptian Cotton Leaf Worm), Systemic Activity
(§2) Test compounds were applied by pipette from 10′000 ppm DMSO stock solutions into 24-well plates and mixed with agar. Lettuce seeds were placed on the agar and the multi well plate was closed by another plate which contains also agar. After 7 days the roots have absorbed the compound and the lettuce has grown into the lid plate. The lettuce leafs were now cut off into the lid plate. Spodoptera eggs were pipetted through a plastic stencil on a humid gel blotting paper and the plate closed with it. The samples were assessed for mortality 6 days after infestation.

[13] = tested on: Spodoptera littoralis (Egyptian Cotton Leaf Worm); test: Activity against Spodoptera littoralis, compound in agar taken up by lettuce; conditions: 144 h, test rate of 12.5 ppm, lettuce root uptake, 6 days after infestation, read-out: effect in at least one of the three categories (mortality, anti-feedancy, or growth inhibition)
Description: Example B10: Activity Against Spodoptera littoralis (Egyptian Cotton Leaf Worm)
as §2, with “mortality, anti-feedant effect and growth inhibition in comparison to untreated samples” for “mortality”

[14] = tested on: Tetranychus urticae (Two-Spotted Spider Mite); test: Activity against Tetranychus urticae, feeding/contact activity; conditions: foliar, 192 h
Experimental: Example B12: Activity Against Tetranychus urticae (Two-Spotted Spider Mite): Feeding/Contact Activity
Bean leaf discs on agar in 24-well microtiter plates were sprayed with aqueous test solutions prepared from 10′000 ppm DMSO stock solutions. After drying the leaf discs were infested with a mite population of mixed ages. The samples were assessed for mortality on mixed population (mobile stages) 8 days after infestation.

CCS(=O)(=O)c1cc(C(F)(F)F)cnc1-c1nc2cc(C(F)(F)F)n(C)c(=O)c2n1C [Compound A1, 2-[3-ethylsulfonyl-5-(trifluoromethyl)-2-pyridyl]-3,5-dimethyl-6-(trifluoromethyl)imidazo[4,5-c]pyridin-4-one]
≥ 80%: mortality at 24 ppm [1] | percent effect (mortality or growth inhibition) at 5 ppm [2] | mortality at 200 ppm [3] | percent control (mortality, anti-feedant effect or growth inhibition) at 200 ppm [4] | mortality at 200 ppm [5] | mortality at 200 ppm [6] | mortality at 200 ppm [7] | percent effect (mortality or growth inhibition) at 200 ppm [8] | mortality at 200 ppm [9] | mortality at 12 ppm [10] | mortality at 200 ppm [11] | mortality at 12.5 ppm [12] | percent control (mortality, anti-feedancy or growth inhibition) at 12.5 ppm [13]

CCSc1cc(Br)cnc1-c1nc2cc(C(F)(F)F)n(C)c(=O)c2n1C [Compound A20, 2-(5-bromo-3-ethylsulfanyl-2-pyridyl)-3,5-dimethyl-6-(trifluoromethyl)imidazo[4,5-c]pyridin-4-one]
≥ 80%: mortality at 200 ppm [3] | mortality at 200 ppm [14] | mortality at 200 ppm [6]

Source: US10450311B2, “Pesticidally active heterocyclic derivatives with sulphur containing substituents” (Syngenta Participations AG, priority 2014, dated 2019)
